Laboratory results published in US20230000853A1, “PHARMACEUTICAL COMPOSITION CONTAINING NITROXOLINE, NITROXOLINE TABLET, PREPARATION METHOD THEREFOR AND USE THEREOF” (JIANGSU YAHONG MEDITECH CO., LTD., priority 2019, published 2023).

Columns and labels:
[1] = Particle size determination by Malvern laser particle size analyzer, wet method; format: physicochemical; settings: pulverized raw material; dispersant 0.5% aqueous Tween 80
Protocol: The initial particle size D90 of the raw material nitroxoline or nitroxoline lysine salt was more than 100 μm. The raw material was pulverized with the mechanical mill to obtain the raw material having the particle size I, II, III or V in the following Table 1. The raw material was pulverized with the jet mill to obtain the raw material having the particle size IV in the following Table 1.
Determination was carried out on the Malvern laser particle size analyzer MS2000 by wet method according to the operation requirements of the instrument, the dispersant was an aqueous Tween 80 solution, and the mass fraction of Tween 80 in the aqueous solution was 0.5%.

[2] = Solubility and dissolution of nitroxoline in aqueous media; format: physicochemical; settings: 0.1 mol/L hydrochloric acid, water and phosphate buffer (pH 6.8) at 37° C.
Source text: In addition, the resulting nitroxoline tablets have uniform content, narrow variation range in hardness, and good fluidity and compressibility.

[3] = low solubility and high permeability; cited from earlier work
[4] = target: T1, methionine aminopeptidase MetAP2 (Homo sapiens, UniProt P50579); settings: vascular endothelial cells; cited from earlier work
T1 construct: host or cells: vascular endothelial cells

[5] = target: T2, silence information regulator 2-related enzyme SIRT1 (Homo sapiens, UniProt Q96EB6); settings: vascular endothelial cells; cited from earlier work
T2 construct: host or cells: vascular endothelial cells
T2 sequence (Q96EB6 1-747): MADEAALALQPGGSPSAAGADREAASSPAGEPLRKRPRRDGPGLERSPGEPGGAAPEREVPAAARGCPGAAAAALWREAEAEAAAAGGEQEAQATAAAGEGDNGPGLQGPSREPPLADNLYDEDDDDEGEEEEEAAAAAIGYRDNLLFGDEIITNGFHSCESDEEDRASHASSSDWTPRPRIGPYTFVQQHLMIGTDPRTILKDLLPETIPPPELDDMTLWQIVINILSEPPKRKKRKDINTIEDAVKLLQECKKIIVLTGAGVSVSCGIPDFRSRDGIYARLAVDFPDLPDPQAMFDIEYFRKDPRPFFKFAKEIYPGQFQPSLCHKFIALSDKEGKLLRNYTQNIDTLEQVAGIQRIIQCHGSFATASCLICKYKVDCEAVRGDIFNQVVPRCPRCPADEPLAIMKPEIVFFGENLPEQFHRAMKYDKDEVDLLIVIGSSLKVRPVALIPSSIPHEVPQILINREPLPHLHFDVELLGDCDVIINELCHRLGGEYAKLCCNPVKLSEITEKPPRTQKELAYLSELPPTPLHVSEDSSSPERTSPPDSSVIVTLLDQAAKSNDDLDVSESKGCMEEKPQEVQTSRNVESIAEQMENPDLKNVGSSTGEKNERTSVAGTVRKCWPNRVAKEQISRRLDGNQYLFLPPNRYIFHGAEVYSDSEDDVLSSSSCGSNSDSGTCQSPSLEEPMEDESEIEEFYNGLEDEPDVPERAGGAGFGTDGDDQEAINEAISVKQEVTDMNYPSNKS

T1 sequence (P50579 whole entry): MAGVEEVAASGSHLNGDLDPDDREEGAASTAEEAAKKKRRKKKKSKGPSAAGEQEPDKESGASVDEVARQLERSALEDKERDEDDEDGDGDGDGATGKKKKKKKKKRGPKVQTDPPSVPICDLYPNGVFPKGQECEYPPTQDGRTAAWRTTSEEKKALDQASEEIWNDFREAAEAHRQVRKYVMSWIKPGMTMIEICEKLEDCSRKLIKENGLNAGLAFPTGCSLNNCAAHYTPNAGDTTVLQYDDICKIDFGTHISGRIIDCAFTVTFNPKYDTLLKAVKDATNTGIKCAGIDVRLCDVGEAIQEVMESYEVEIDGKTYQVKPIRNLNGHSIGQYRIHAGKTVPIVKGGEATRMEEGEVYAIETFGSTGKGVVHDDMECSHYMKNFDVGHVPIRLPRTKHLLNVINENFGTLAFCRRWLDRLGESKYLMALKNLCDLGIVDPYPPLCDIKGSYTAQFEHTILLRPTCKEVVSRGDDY

| Structure (SMILES) | Particle size D10 [1] [μm] | Particle size D50 [1] [μm] | Particle size D90 [1] [μm] | Solubility and dissolution [2] | BCS class [3] | Inhibition of MetAP2 [4] | Inhibition of SIRT1 [5] |
| --- | --- | --- | --- | --- | --- | --- | --- |
| O=[N+]([O-])c1ccc(O)c2ncccc12 [IV (Nitroxoline), Nitroxoline] | 0.12 | 4.58 | 12.61 | – | – | – | – |
| NCCCC[C@H](N)C(=O)O.O=[N+]([O-])c1ccc(O)c2ncccc12 [V (Nitroxoline lysine salt), Nitroxoline lysine salt] | 3.67 | 10.88 | 43.29 | – | – | – | – |
| O=[N+]([O-])c1ccc(O)c2ncccc12 [III (Nitroxoline), Nitroxoline] | 3.44 | 11.02 | 42.55 | – | – | – | – |
| O=[N+]([O-])c1ccc(O)c2ncccc12 [I (Nitroxoline), Nitroxoline] | 5.66 | 33.60 | 99.31 | – | – | – | – |
| O=[N+]([O-])c1ccc(O)c2ncccc12 [II (Nitroxoline), Nitroxoline] | 3.99 | 14.95 | 70.58 | – | – | – | – |
| O=[N+]([O-])c1ccc(O)c2ncccc12 [nitroxoline, 5-nitro-8-hydroxyquinoline] | – | – | – | low solubility and slow dissolution | BCS class II | inhibit | inhibit |
